# Experimental data: patent US20190359653A1, “SELECTIVE PEPTIDE INHIBITORS OF FRIZZLED” (Genentech, Inc., priority 2016, published 2019)
# “Also recorded” adds a separate entry of the source. Where two headings read alike, the source gives them in different places.
# Columns and labels:
# [1] = test system: Wnt3a-mediated stabilization of β-catenin in mouse L cells; assay: in-cell western of β-catenin protein in L cells treated with Wnt3a; type: cell-based; conditions: for Wnt3a-mediated stabilization of β-catenin: mouse L cells
# Description: DMSO controls were performed in parallel. Following treatment, the L-cells were fixed, permeabilized, probed with fluorescently labeled anti-β-catenin antibodies, and observed via in-cell western assay (i.e., as described in Hannoush, R. N. (2008) PLoS One 3, e3498) to assess β-catenin protein levels. The values in Table 7 are averages of at least 3 independent replicates, ±standard deviation.
# [2] = test system: Wnt3a-mediated β-catenin signaling in HEK293-TB cells; type: cell-based; conditions: for HEK293S-TB % Remaining Activity: measured at 100 μM peptide
# Herceptin = assay: spot phage ELISA against Herceptin (off-target); type: binding; conditions: spot phage ELISA signal against Herceptin over ELISA signal against BSA; Tables 3 and 4
# Description: Phage pools of linear peptide libraries (Stanger, K. et al. Allosteric peptides bind a caspase zymogen and mediate caspase tetramerization. Nat Chem Biol 8, 655-660 (2012)) were cycled through rounds of binding selections with hFZD7 CRD-Fc following standard protocols (Tonikian et al. (2007) Nat Protoc 2, 1368-1386). Herceptin (10 μM) was included in sorting solution to block potential Fc binders during all rounds of sorting. After four rounds of binding selection, individual phage clones were analyzed in a high-throughput spot phage ELISA using plate-immobilized FZD7 CRD-Fc as target or off-target for specificity test (hFZD8 CRD-Fc and Herceptin). To measure off-target affinity, duplicate phage particle were assayed against BSA to measure non-specific binding. Clones with a phage-binding signal >0.5 and signal-to-noise ratio >10 were considered to be positive clones and were subjected to DNA sequence analysis. General data handling was done using Microsoft Excel 2010 unless otherwise noted.
# In order to investigate the role of FZD7 in intestinal stem cell function, experiments were performed to identify ligands that selectively bind FZD7 CRD. A naïve linear peptide library (4-16 amino acids in length) and a cyclic peptide library were screened via phage display against FZD7 CRD-Fc. Peptides found to bind FZD7 CRD-Fc were then screened via spot phage ELISA against FZD7 CRD-Fc, FZD8 CRD-Fc, and Herceptin to identify candidates that bind FZD7 CRD but not FZD8 CRD or herceptin. The amino acid sequences of candidate FZD7 CRD-binding linear peptides are shown in Table 3 below, and the amino acid sequences of candidate FZD7 CRD-binding cyclic peptides are shown in Table 4.
# Briefly, sixty Fz7-21-derived peptides (see Table 5), each containing at least one random alanine and/or valine/and/or aspartic acid and/or serine substitution, were generated and screened via spot phage ELISA (i.e., as described above) against FZD7 CRD-Fc and Herceptin.
# [3] = target: T1, Wnt5a binding to FZD4 CRD (Homo sapiens, UniProt Q9ULV1); assay: ELISA of biotinylated Wnt5a binding to FZD CRD-Fc; conditions: peptide 0-10 μM
# T1 construct: hFZD4 CRD-Fc (cat no. 5847-FZ); purchased R&D systems 5847-FZ
# T1 sequence (Q9ULV1 40-161 limits assumed): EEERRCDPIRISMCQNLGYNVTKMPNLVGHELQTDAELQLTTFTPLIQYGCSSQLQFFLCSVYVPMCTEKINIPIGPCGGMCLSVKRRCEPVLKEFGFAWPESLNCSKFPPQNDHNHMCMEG
# Description: (§1) 384-well Maxisorp plates (cat. no. 464718; Thermo Scientific) were incubated with 30 μL of Neutravidin (cat. no. 31000, Thermo Scientific; 2 μg/mL in PBS) overnight at 4° C. Plates were then washed with PBST and blocked with PBS/1% BSA for 1 hour at RT and then washed with PBST prior to further processing. The binding assay was conducted in 96 well plates (cat no. 83007-374; VWR) which were blocked with PBS/1% BSA overnight at 4° C. hFZD4 CRD-Fc or hFZD7 CRD-Fc (63 ng/mL) were incubated with either Bio-Wnt3a (25 ng/mL) or Bio-Wnt5a (50 ng/mL) in the presence of 4-fold serial dilutions of the indicated peptide in PBS overnight at 4° C. All assays included hFZD9 CRD-mIgG2A protein as a negative control. hFZD7 CRD-His was suspended in 150 mM NaCl, 50 mM Tris-HCl at pH 7.5 and when used in assays an equal volume of the same buffer control was used. The binding assay mixtures were transferred to the Neutravidin coated plates and incubated for ˜1 h at RT. The wells were then washed with PBST, incubated with anti-hIgG1-HRP (1:10,000 suspended in PBS supplemented with 1% BSA; cat. no. A18817, Invitrogen), and washed again with PBST. The signal was developed with the addition of TMB reagent (following the manufacturer's recommendation; KPL; 50-76-00) for 15 min prior to the addition of an equal volume of 1 M phosphoric acid for 10 min Absorbance was measured at 450 nm using a Tekan M1000 plate reader. Values were collected and plotted using Prism Graphpad software. All assay conditions using peptides were at 1% DMSO final concentration. […]
# (§2) Briefly, the assays were performed using (a) FZD1 CRD-Fc, (b) FZD2 CRD-Fc, (c) FZD4 CRD-Fc, or (d) FZD7 CRD-Fc as the capture reagent and biotinylated-Wnt5a as the detection reagent. […] Streptavidin-HRP was used to detect biotinylated Wnt5a, and HRP activity was measured as a function of chemiluminescence detection at 428 nm. […]
# [4] = test system: receptor-independent β-catenin signaling in 6-BIO-treated HEK293-TB cells; assay: epistasis study, HEK293-TB cells stimulated with 6-BIO; type: cell-based; conditions: 10 μM 6-BIO, 6 hr; FIG. 2E
# hFZD7 CRD-His = target: T2, hFZD7 CRD-His (Homo sapiens, UniProt O75084); assay: SEC-MALS of hFZD7 CRD-His incubated with peptide; type: binding
# T2 construct: hFZD7 CRD-His [Gln33-Gly168] was expressed as a secreted protein in Trichoplusia ni cells expressing EndoH; made in house; host or cells: Trichoplusia ni cells expressing EndoH, treated with Kifunensine (baculovirus)
# Description: Samples were resolved by a Superdex S200 3.2/300 column (General Electric Healthcare Life Science, Pittsburgh, Pa.; cat. no. 28990946) at 0.15 mL/min in 150 mM NaCl, 50 mM Tris-HCl pH 7.5 buffer with 1% DMSO final concentration. Runs were performed on a 1260 infinity HPLC (Agilent Technology, Santa Clara, Calif.) connected to a Dawn Heleos-II multi-angle static Light Scattering (MALS) detector and a Optilab T-rEX differential Refractive Index (dRI) detector (Wyatt Technologies, Santa Barbara, Calif.).
# Samples were resolved by a Superdex S200 3.2/300 column (General Electric Healthcare Life Science, Pittsburgh, Pa.; 28990946) at a 0.15 mL/min in 150 mM NaCl, 50 mM Tris-HCl pH 7.5 buffer with 1% DMSO final concentration. Column was connected to a 1260 infinity HPLC (Agilent Technology, Santa Clara, Calif.) connected to a Dawn Heleos-II Multi-Angle static Light Scattering (MALS) detector and the Optilab T-rEX differential Refractive Index (dRI) detectors (Wyatt Technologies, Santa Barbara, Calif.).
# [5] = test system: Wnt5a binding to FZD1 CRD, FZD2 CRD, and FZD7 CRD; assay: ELISA of biotinylated Wnt5a binding to FZD CRD-Fc; conditions: FIGS. 22A, 22B
# Description: as §1, §2
# [6] = target: T3, Wnt3a binding to FZD4 CRD (Homo sapiens, UniProt Q9ULV1); assay: ELISA of biotinylated Wnt3a binding to FZD CRD-Fc; conditions: peptide 0-10 μM
# T3 construct: hFZD4 CRD-Fc (cat no. 5847-FZ); purchased R&D systems 5847-FZ
# T3 sequence (Q9ULV1 40-161 limits assumed): T1 sequence (Q9ULV1 40-161 limits assumed)
# Description: 384-well Maxisorp plates (cat. no. 464718; Thermo Scientific) were incubated with 30 μL of Neutravidin (cat. no. 31000, Thermo Scientific; 2 μg/mL in PBS) overnight at 4° C. Plates were then washed with PBST and blocked with PBS/1% BSA for 1 hour at RT and then washed with PBST prior to further processing. The binding assay was conducted in 96 well plates (cat no. 83007-374; VWR) which were blocked with PBS/1% BSA overnight at 4° C. hFZD4 CRD-Fc or hFZD7 CRD-Fc (63 ng/mL) were incubated with either Bio-Wnt3a (25 ng/mL) or Bio-Wnt5a (50 ng/mL) in the presence of 4-fold serial dilutions of the indicated peptide in PBS overnight at 4° C. All assays included hFZD9 CRD-mIgG2A protein as a negative control. hFZD7 CRD-His was suspended in 150 mM NaCl, 50 mM Tris-HCl at pH 7.5 and when used in assays an equal volume of the same buffer control was used. The binding assay mixtures were transferred to the Neutravidin coated plates and incubated for ˜1 h at RT. The wells were then washed with PBST, incubated with anti-hIgG1-HRP (1:10,000 suspended in PBS supplemented with 1% BSA; cat. no. A18817, Invitrogen), and washed again with PBST. The signal was developed with the addition of TMB reagent (following the manufacturer's recommendation; KPL; 50-76-00) for 15 min prior to the addition of an equal volume of 1 M phosphoric acid for 10 min Absorbance was measured at 450 nm using a Tekan M1000 plate reader. Values were collected and plotted using Prism Graphpad software. All assay conditions using peptides were at 1% DMSO final concentration.
# Without being bound be theory, the substantial conformational change induced by dFz7-21 on hFZD7 CRD, as exemplified by the altered geometry of the lipid binding cavity, may facilitate the accommodation of two Wnt molecules simultaneously onto the hFZD7 CRD dimer (FIG. 4e-h).
# Similar results were observed using Wnt3a. […] Binding of Wnt3a to FZD1 CRD, FZD2 CRD, and FZD7 CRD increased in the presence of dFz7-21 at concentrations below about 0.5 μM (FIG. 22E), with the most binding seen in the presence of 0.01 μM-0.05 μM dFz7-21. […] Fz7-21S had no effect on Binding of Wnt3a to any of the FZD CRDs tested (FIG. 22F).
# [7] = β-catenin by immunofluorescence, Wnt3a 2.5 nM, 5 hours, mean ± standard deviation
# [8] = […], mWnt3a 50 ng/mL, 6 hours, mean ± standard deviation, read-out: HEK293S-TB IC50
# [9] = measured at 11.11 μM of peptide
# [10] = read-out: IC50, Wnt3a-stimulated β-catenin signaling
Sequence,L CELLS % Remaining Activity ([1]; measured at 100 μM peptide),"IC50 [1, 7]","IC50 [2, 8]",HEK293S-TB % Remaining Activity ([2]; mean ± standard deviation),SIGNAL: NOISE RATIO HERCEPTIN (Herceptin),further results
FDFCSVMPQFIYCPGD [Fz7-20],23.68 ± 4.40%,15.2 ± 10.8 µM,20.8 ± 1.61 µM,9.78 ± 0.53%,1.14,
ISLIEAMIALDRVF [Fz7-06],174.95%,,10.5 ± 0.56 µM,4.70 ± 2.07%,1.1,"L CELLS IC50 (μM) [1, 7]: n. i."
IWFKGRFVEFSSLV [Fz7-17],38.20 ± 0.06%,~35 µM,34.77 ± 0.34 µM,4.59 ± 1.30%,1.1,
LPSDDLEFWCHVMY [Fz7-21],,0.05 ± 0.03 µM,,5.15 ± 2.88%,,"L CELLS % Remaining Activity [1, 9]: 50.98^G ± 3.76%; Wnt3a-mediated stabilization of β-catenin [1]: blocked; effect on Wnt5a binding to FZD4 CRD [3]: did not show any effect; also recorded: no such effect; IC50 [2, 10]: 0.09 to 0.1 µM; inhibition of Wnt signaling in 6-BIO-treated cells [4]: Neither Fz7-21 nor Fz7-21S inhibited; ΔMW (kDa) (hFZD7 CRD-His; 1:5, relative to the DMSO control): 6.4 kDa; homodimerization or oligomerization of hFZD7 CRD-His (hFZD7 CRD-His; concentration-dependent): induced homodimerization or oligomerization; MW (kDa) (hFZD7 CRD-His; hFZD7 CRD 15.8 μM, protein:peptide 1:1, 2 h): 21.9 kDa; MW (kDa) (hFZD7 CRD-His; protein:peptide 1:5): 27.3 kDa; MW (kDa) (hFZD7 CRD-His; protein:peptide 1:10): 32 kDa; peptide concentration with the most Wnt5a binding [5]: 0.1 µM; effect on Wnt3a binding to FZD4 CRD [6]: did not show any effect; also recorded: Neither Fz7-21 nor dFz7-21 had any effect"
LPSDNLEFWCHVMY [Fz7-21N],,0.18 ± 0.12 µM,,5.51 ± 0.13%,,"L CELLS % Remaining Activity [1, 9]: 59.77^G ± 6.12%; Wnt3a-mediated stabilization of β-catenin [1]: blocked; IC50 [2, 10]: 0.1 µM"
SDDXEFWCHVMY [dFz7-21Δ2.L6Hof],,,,,,IC50 compared with dFz7-21 ([2]; text to Table 17): comparable to that of dFz7-21
YEHLHDLMDLIRPW [Fz7-07],67.20 ± 10.22%,> 100 µM,> 100 µM,46.04 ± 6.94%,1.2,
